Publication PMC11742723, “The clinical-stage drug BTZ-043 accumulates in murine tuberculosis lesions and efficiently acts against Mycobacterium tuberculosis” (Nature Communications, 2025)
In brackets after ≈: the same amount, converted by molar mass. Several values for one entry are separate records, joined by “and”; a condition that tells them apart may be missing. Equal entries are not always repeated. Where two headings read alike, the source gives them in different places.

What was measured:
[1] = BALB/c, mouse, in vivo, po
[2] = tested on: Caco-2 cell monolayers
[3] = for ng BTZ-043 / mg cryosection: individual cryosections; for BTZ-043 concentration in lung cryosections: Mtb-infected IL-13tg mice, 10 daily doses 250 mg/kg, one mouse each, n=5 cryosections, 250 mg/kg
[4] = IL-13tg, mouse, in vivo
[5] = tested on: H37Rv; conditions: in vitro, against H37Rv; cited from earlier work
[6] = tested on: Mtb; parameters: method as in PMID 28821804; conditions: NOS2-deficient mice, 50 mg/kg/day, cited from earlier work
[7] = tested on: Mtb; parameters: method as in PMID 37791784; conditions: C3HeB/FeJ substrain, 2 months of therapy; cited from earlier work
[8] = tested on: Mtb; parameters: method as in PMID 37791784, PMID 34370580; conditions: in vitro, ref PMID 37791784, PMID 34370580; cited from earlier work
[9] = tested on: Mtb; parameters: method as in PMID 39793592; conditions: phase IIa EBA, 250 mg - 1750 mg once daily for 14 days; cited from earlier work
[10] = in vivo; conditions: IL-13tg, mouse, oral, 250 mg/kg
[11] = in vitro; conditions: human
[12] = In vitro permeability assay in Caco-2 monolayers; conditions: human, Caco-2
[13] = tested on: Caco-2 cell monolayers; assay: In vitro permeability assay in Caco-2 monolayers; conditions: direction AB, time 60 min
[14] = Impact of γ-irradiation on BTZ-043 in lung cryosections of treated mice (LC-MS/MS, MALDI imaging)

C[C@H]1COC2(CCN(c3nc(=O)c4cc(C(F)(F)F)cc([N+](=O)[O-])c4s3)CC2)O1 [BTZ-043]
AUCinf ([1]; 5 mg/kg/day): 1,360 h·ng/mL
Cmax ([1]; 5 mg/kg/day): 1,050 ng/mL
Tmax ([1]; 5 mg/kg/day): 30 min
AUCinf ([1]; 50 mg/kg/day): 14,700 h·ng/mL
Cmax ([1]; 50 mg/kg/day): 8070 ng/mL
Tmax ([1]; 50 mg/kg/day): 30 min
permeability classification [2]: permeable drug
transport mechanism indicated by efflux ratios [2]: passive diffusion is dominant over active transport mechanisms
ng BTZ-043 / mg cryosection ([3]; 2 h after administration, mouse KW116 B9#1 (male)): 1.02 ng / mg cryosection and 0.92 ng / mg cryosection and 0.62 ng / mg cryosection
ng BTZ-043 / mg cryosection ([3]; 8 h after administration, mouse KW116 B15#1 (female)): 0.27 ng / mg cryosection (2×) and 0.21 ng / mg cryosection and 0.36 ng / mg cryosection
pulmonary drug concentrations in lung cryosections ([3]; IL-13tg mice, until 8 h after administration): 270 to 1940 ng/g
BTZ-043 concentration in lung cryosections ([3]; 0.5 h after last administration): 1.32 ± 0.33 ng/mg cryosection
BTZ-043 concentration in lung cryosections ([3]; 2 h after last administration): 1.10 ± 0.25 ng/mg cryosection
BTZ-043 concentration in lung cryosections ([3]; 4 h after last administration): 0.79 ± 0.12 ng/mg cryosection and 1.94 ± 0.37 ng/mg cryosection
BTZ-043 concentration in lung cryosections ([3]; 8 h after last administration): 0.27 ± 0.05 ng/mg cryosection and 0.65 ± 0.06 ng/mg cryosection
pulmonary BTZ-043 concentrations relative to the MIC ([3]; all time points investigated (0.5-8 h), n=8 mice): substantially higher than the MIC at all time points investigated
BTZ-043 concentration in the whole section above the MIC ([3]; lung cryosections, 4 and 8 h): at least 100 x
penetration into the lesion by MALDI imaging [4]: penetration of BTZ-043 into the lesion was observed
finding at necropsy (BTZ-043 treated mice, most pronounced at the highest dose for 8 weeks): enlarged stomachs
health status of drug treated mice at high treatment doses (dose escalation study, BALB/c): did not observe any indication that could point to adverse side effects
MIC [5]: 1 ng/mL (≈ 2.32 nM)
bactericidal activity ([6]; 4 weeks of treatment): profound bactericidal activity
effect on bacterial burden ([6]; two weeks): hardly reduced the bacterial burden
effect on pulmonary bacterial load [7]: significant reduction of the pulmonary bacterial load
caseum activity assay result [8]: negative
bacterial killing with increasing dose in TB patients [9]: no obvious further increase in bacterial killing above daily doses of 1000 mg
concentration at 0.5 h ([10]; both, lung (cryosections)): 1120 ± 190 ng/g
concentration at 2 h ([10]; both, lung (cryosections)): 910 ± 150 ng/g
concentration at 8 h ([10]; both, lung (cryosections)): 270 ng/mL
concentration at 4 h ([10]; female, lung cryosection): 780 ng/g
concentration at 8 h ([10]; female, lung cryosection): 260 ng/g
concentration at 2 h ([10]; female, lung cryosections): 1090 ng/g
concentration at 2 h ([10]; male, lung cryosection): 950 ng/g
concentration at 0.5 h ([10]; male, lung cryosections): 1280 ng/g
concentration at 4 h ([10]; male, lung cryosections): 1380 ng/g
concentration at 8 h ([10]; male, lung cryosections): 730 ng/g
Papp B→A at 120 min ([11]; Caco-2): 6.9 to 12.9 ×10⁻⁶ cm/s
Papp at 120 min, 1 µg/mL ([11]; Caco-2, Mean Papp): 9.44 ×10⁻⁶ cm/s
Papp at 120 min, 4 µg/mL ([11]; Caco-2, Mean Papp): 12.9 ×10⁻⁶ cm/s
Papp A→B at 120 min [12]: 9.44 to 11.3 ×10⁻⁶ cm/s
Papp at 120 min, 4 µg/mL [12]: 11.3 ×10⁻⁶ cm/s
efflux ratio at 120 min, 1 µg/mL [12]: 0.73
efflux ratio at 120 min, 4 µg/mL [12]: 1.14
Concentration ([13]; BTZ-043 4 μg mL^-1, replicates 1-3): 124.355 ng/mL
Calculated Amount ([13]; BTZ-043 (4 µg mL^-1), compartment baso): 124.355
concentration at 1 h ([14]; BALB/c, mouse, 250 mg/kg/day, ng/mg lung cryosection, measurement 2, no gamma irradiation, 1h after BTZ administration, naïve BALB/c 250 mg/kg/day 5 days, single cryosection): 1400 ng/g
ng/mg lung cryosection, Mean ([14]; gamma irradiation, 1h after BTZ administration, naïve BALB/c 250 mg/kg/day 5 days, single cryosection): 13.81 ng/mg lung cryosection
impact of γ-irradiation on the concentration and distribution of BTZ-043 ([14]; lung tissue cryosections, 5.85 kGy): does not impact
